Results on one compound are retold here after US8163921B2, “Hepatitis C virus inhibitors” (Bristol-Myers Squibb Company, priority 2008, dated 2012).

For orientation: EC50 means the concentration at which the effect is half-maximal. Read a low EC50 as greater potency.

Experiment [1] has as its system HCV replicon (Renilla luciferase) in HUH-7 cells. The experiment in a line: HCV replicon luciferase reporter assay. In kind it is cell-based, HCV strain 1b. An excerpt:
An HCV replicon whole cell system was established as described by Lohmann V, Korner F, Koch J, Herian U, Theilmann L, Bartenschlager R., Science 285(5424):110-3 (1999). This system enabled us to evaluate the effects of our HCV Protease compounds on HCV RNA replication. Briefly, using the HCV strain 1b sequence described in the Lohmann paper (Assession number:AJ238799), an HCV cDNA was synthesized by Operon Technologies, Inc. (Alameda, Calif.), and the full-length replicon was then assembled in plasmid pGem9zf(+) (Promega, Madison, Wis.) using standard molecular biology techniques. […]
As a secondary assay, EC50 determinations from the replicon FRET assay were confirmed in a replicon luciferase reporter assay. […] Following 4 days in a 37° C./5% CO2 incubator, cells were analyzed for Renilla Luciferase activity using the Promega Dual-Glo Luciferase Assay System. […] Plates were read on a Packard TopCount NXT using a luminescence program. The percentage inhibition was calculated using the formula below: % control=average luciferase signal in experimental wells (+compound) average luciferase signal in DMSO control wells (−compound)
The values were graphed and analyzed using XLfit to obtain the EC50 value.

The target in a further experiment is T1, human liver cathepsin B (Homo sapiens, UniProt P07858).
T1 construct: purchased Sigma, EMDbiosciences; host or cells: human liver (as named)
Nature of the experiment: Specificity assay, cathepsin B. In kind it is biochemical. Conditions: read-out: Cathepsin B activity in the specificity assays. Here is the method:
The specificities of compounds of the present disclosure were determined against a variety of serine proteases: human neutrophil elastase (HNE), porcine pancreatic elastase (PPE) and human pancreatic chymotrypsin and one cysteine protease: human liver cathepsin B. In all cases a 96-well plate format protocol using a fluorometric Amino-Methyl-Coumarin (AMC) substrate specific for each enzyme was used as described previously (PCT Patent Application No. WO 00/09543) with some modifications to the serine protease assays. All enzymes were purchased from Sigma, EMDbiosciences while the substrates were from Bachem, Sigma and EMDbiosciences.
Compound concentrations varied from 100 to 0.4 μM depending on their potency. The enzyme assays were each initiated by addition of substrate to enzyme-inhibitor pre-incubated for 10 min at room temperature and hydrolysis to 15% conversion as measured on cytofluor.
100 mM NaOAC (Sodium Acetate) pH 5.5, 3% DMSO, 1 mM TCEP (Tris(2-carboxyethyl)phosphine hydrochloride), 5 nM Cathepsin B (enzyme stock activated in buffer containing 20 mM TCEP before use), and 2 μM Z-FR-AMC diluted in H2O.
The percentage of inhibition was calculated using the formula: [1−((UVinh−UVblank)/(UVctl−UVblank))]×100
A non-linear curve fit was applied to the inhibition-concentration data, and the 50% effective concentration (IC50) was calculated by the use of Excel XLfit software.

`C=C[C@@H]1C[C@]1(NC(=O)[C@@H]1C[C@@H](Oc2ncc(OC)c3ccc(Cl)cc23)CN1C(=O)[C@@H](Nc1nc(-c2cccc(OC(F)(F)F)c2)cs1)C(C)(C)C)C(=O)NS(=O)(=O)C1CC1` [Example 68] registered a half-maximal effective concentration (EC50) in experiment [1] of 0.002 µM. The IC50 at human liver cathepsin B was determined as 15 µM.
